Reference: patent publication US5120752A, “Cyclopropyl derivative lipoxygenase inhibitors” (Abbott Laboratories, priority 1990, dated 1992)

Experiments:
[1] = tested on: LTB4 biosynthesis in human whole blood; experiment: Inhibition of calcium ionophore-induced LTB4 biosynthesis in human whole blood; assay type: cell-based; conditions: A23187 50 μM, 15 min preincubation, read-out: Inhibition of Leukotriene Biosynthesis IC50
Description: Inhibition of leukotriene biosynthesis was evaluated in an assay, involving calcium ionophore-induced LTB4 biosynthesis expressed by human whole blood. Heparinized (20 U/mL) human blood (0.3 mL) was preincubated with test compound or vehicle for 15 min. at 37° C. Eicosanoid biosynthesis was initiated by adding calcium ionophore (A23187) in DMSO to a final concentration of 50 μM and terminated after 30 min. by rapid cooling of the blood in an ice bath and centrifuging at 3° C. for 10 min at 2500×g. The plasma was mixed with 4 volumes of methanol and allowed to stand for at least 30 min. at 3° C. prior to centrifuging at 1800×g for 10 min. The level of LTB4 in aliquots of the methanol-plasma extract was analyzed by radio-immunoassay or enyme-immunoassay techniques.

[2] = target: T1, 5-lipoxygenase (Rattus norvegicus, UniProt P12527); experiment: In vitro inhibition of 5-lipoxygenase (20,000×g supernatant from homogenized RBL-1 cells, radiolabeled arachidonic acid); assay type: biochemical; conditions: 20,000×g supernatant of RBL-1 cells; triplicate; read-out: IC50 (in vitro inhibitory potency against 5-lipoxygenase)
T1 construct: 20,000×g supernatant from 1.5 million homogenized RBL-1 cells; endogenous in cells; host or cells: RBL-1 cells (20,000×g supernatant of homogenate)
T1 sequence (P12527 1-673): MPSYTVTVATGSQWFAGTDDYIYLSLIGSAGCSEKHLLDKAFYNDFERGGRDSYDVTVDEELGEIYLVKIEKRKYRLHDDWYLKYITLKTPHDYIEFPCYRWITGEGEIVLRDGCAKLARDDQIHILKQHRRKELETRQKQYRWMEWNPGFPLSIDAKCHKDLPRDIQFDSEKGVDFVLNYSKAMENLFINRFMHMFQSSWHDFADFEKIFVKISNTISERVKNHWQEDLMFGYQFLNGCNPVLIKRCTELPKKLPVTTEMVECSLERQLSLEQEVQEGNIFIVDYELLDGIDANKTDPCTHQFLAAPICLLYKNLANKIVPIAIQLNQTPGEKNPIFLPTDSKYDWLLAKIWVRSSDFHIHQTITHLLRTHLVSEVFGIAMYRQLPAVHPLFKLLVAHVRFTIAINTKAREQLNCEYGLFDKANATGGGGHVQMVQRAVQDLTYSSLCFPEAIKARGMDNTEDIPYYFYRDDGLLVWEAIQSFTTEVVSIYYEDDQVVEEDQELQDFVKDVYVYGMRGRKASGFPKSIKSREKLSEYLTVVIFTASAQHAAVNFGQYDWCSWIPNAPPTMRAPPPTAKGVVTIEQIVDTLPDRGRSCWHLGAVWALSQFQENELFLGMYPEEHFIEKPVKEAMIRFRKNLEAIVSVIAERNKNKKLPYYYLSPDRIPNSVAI
Description: Assays to determine 5-lipoxygenase inhibitory activity were performed in […] incubations containing the 20,000×g supernatant from 1.5 million homogenized RBL-1 cells and various concentrations of the test compound. Reactions were initiated by addition of radiolabeled arachidonic acid and terminated by acidification and ether extraction. Reaction products were separated from nonconverted substrate by thin layer chromatography and measured by liquid scintillation spectroscopy. All incubations were performed in triplicate. Inhibition of 5-lipoxygenase activity was calculated as the ratio of the amount of product formed in the presence and absence of inhibitor. IC50 values (concentration of compound producing 50% enzyme inhibition) were calculated by linear regression analysis of percentage inhibition versus log inhibitor concentration plots. (Dyer, R .D.; Haviv, F.; Hanel, A. M.; Bornemier, D. A.; Carter, G. W. Fed. Proc., Fed. Am. Soc. Exp. Biol. 1984, 43, 1462A).

[3] = tested on: leukotriene biosynthesis; experiment: Inhibition of leukotriene biosynthesis in vivo after oral administration, rat peritoneal anaphylaxis model; conditions: 200 μmol/kg oral (gavage), 1 h before antigen challenge; for inhibition in vivo at 200 µmol/kg: read-out: % Inhibition of Leukotrienes at 200 μmol/kg oral dose
Description: Inhibition of the biosynthesis of leukotrienes in vivo after oral administration of representative test compounds of this invention was determined using a rat peritoneal anaphylaxis model in a similar manner as that described by Young and coworkers (Young, P. R.; Dyer, R. D.; Carter, G. W. Fed. Proc., Fed. Am. Soc. Exp. Biol. 1985, 44, 1185). In this model rats were injected intraperitoneally (ip) with rabbit antibody to bovine serum albumin (BSA) and three hours later injected ip with BSA to induce an antgen-antibody response. Rats were sacrificed 15 minutes after this challenge and the peritoneal fluids were collected and analyzed for leukotriene levels. Test compounds were administered by gavage one hour prior to the antigen challenge. Percent inhibition values were determined by comparing the treatment group to the mean of the control group. The results of this assay, for representative compounds of the present invention, at an oral dose level of […] are presented in Table 2, and at an oral dose of […] in Table 3.

Row | IC50 [1] | IC50 [2] | Compound | inhibition in vivo at 200 µmol/kg [3] | % Inhibition of Leukotrienes at 200 μmol/kg oral dose [3]
1 | 610 nM |  | NC(=O)N(O)C[C@@H]1C[C@H]1c1cccc(Oc2cnc3ccccc3c2)c1 (relative stereo) [Example 164, N-(1-trans-(2-(3-(3-quinonyloxy)phenyl)cyclopropyl)methyl)-N-hydroxyurea] |  | 
2 | 470 nM |  | CNC(=O)N(O)C(C)[C@@H]1C[C@H]1c1ccsc1 (stereo partly drawn) [Example 186, N-(1-trans-(2-(3-thienyl)cyclopropyl)ethyl)-N-hydroxy-N'-methylurea] |  | 
3 |  | 100 nM | CNC(=O)N(O)C[C@@H]1C[C@H]1c1cccc(Oc2ccccc2)c1 (relative stereo) [Example 11, N-(1-trans-(2-(3-phenoxyphenyl)cyclopropyl)methyl)-N-hydroxy-N'-methylurea] | 65% | 
4 |  |  | CC(N(O)C(N)=O)[C@]1(C)C[C@H]1c1ccccc1 (stereo partly drawn) [Example 5, N-(1-trans-(1-methyl-2-phenylcyclopropyl)ethyl)-N-hydroxyurea] | 90% | 
5 | 240 nM |  | CNC(=O)N(O)C[C@@H]1C[C@H]1c1ccoc1 (relative stereo) [Example 185, N-(1-trans-(2-(3-furanyl)cyclopropyl)methyl)-N-hydroxy-N'-methylurea] |  | 
6 | 600 nM |  | CNC(=O)N(O)C(C)[C@@H]1C[C@H]1c1ccc(C)s1 (stereo partly drawn) [Example 181, N-(1-trans-(2-(5-methyl-2-thienyl)cyclopropyl)ethyl)-N-hydroxy-N'-methylure] |  | 
7 |  | 1700 nM | CC(=O)N(O)C[C@@H]1C[C@H]1c1ccccc1 (relative stereo) [Example 27, N-(1-trans-(2-phenylcyclopropyl)methyl)-N-hydroxyacetamide] | 99% | 
8 |  | 100 nM | CC(=O)N(O)C(C)[C@@H]1C[C@H]1c1cc2ccccc2s1 (stereo partly drawn) [Example 28, N-(1-trans-(2-(benzo[b]thien-2-yl)cyclopropyl)ethyl)-N-hydroxyacetamide] | 73% | 
9 |  | 1600 nM | CC([C@@H]1C[C@H]1c1ccccc1)N(O)C(N)=O (stereo partly drawn) [Example 3, N-(1-trans-(2-phenylcyclopropyl)ethyl)-N-hydroxyurea] | 100% | 
10 |  | 300 nM | Cc1ccc([C@@H]2C[C@H]2CN(O)C(N)=O)cc1 (relative stereo) [Example 47, N-(1-trans-(2-(4-methylphenyl)cyclopropyl)methyl)-N-hydroxyurea] | 100% | 
11 |  |  | CC(C)Cc1ccc([C@@H]2C[C@H]2C(C)N(O)C(N)=O)cc1 (stereo partly drawn) [Example 19, N-(1-trans-(2-(4-(2-methyl-1-propyl)phenyl)cyclopropyl)-ethyl)-N-hydroxyurea] | 64% | 
12 |  | 100 nM | CC(Oc1ccc([C@H]2[C@H](CN(O)C(N)=O)C2(C)C)cc1)c1ccccc1 (stereo partly drawn) [Example 25] | 52% | 
13 |  | 900 nM | COc1ccc([C@@H]2C[C@H]2C(C)N(O)C(N)=O)cc1 (stereo partly drawn) [Example 22, N-(1-trans-(2-(4-methoxyphenyl)cyclopropyl)ethyl)-N-hydroxyurea] | 96% | 
14 |  |  | CC([C@@H]1C[C@H]1c1cc2ccccc2s1)N(O)C(N)=O (stereo partly drawn) [Example 1, N-(1-trans-(2-(benzo[b]thien-2-yl)cyclopropyl)ethyl)-N-hydroxyurea] | 62% | 
15 |  | 70 nM | CNC(=O)N(O)C(C)[C@@H]1C[C@H]1c1cccc(Oc2ccccc2)c1 (stereo partly drawn) [Example 17, N-(1-trans-(2-(3-phenoxyphenyl)cyclopropyl)ethyl)-N-hydroxy-N'-methylurea] | 81% | 
16 |  |  | NC(=O)N(O)C[C@@H]1C[C@H]1c1ccc(Br)cc1 (relative stereo) [Example 35, N-(1-trans-(2-(4-bromophenyl)cyclopropyl)methyl)-N-hydroxyurea] | 99% | 
17 |  |  | NC(=O)N(O)C[C@@H]1C[C@H]1CCc1ccccc1 (relative stereo) [Example 33, N-(1-trans-(2-(2-phenylethyl)cyclopropyl)methyl)-N-hydroxyurea] | 84% | 
18 |  | 1800 nM | CC(C1CC1c1ccccc1)N(O)C(N)=O (stereo not drawn) [Example 9, N-(1-cis-(2-phenylcyclopropyl)ethyl)-N-hydroxyurea] | 61% | 
19 |  | 900 nM | COc1ccc([C@@H]2C[C@H]2C(C)N(O)C(C)=O)cc1 (stereo partly drawn) [Example 29, N-(1-trans-(2-(4-methoxyphenyl)cyclopropyl)ethyl)-N-hydroxyacetamide] | 96% | 
20 |  |  | CNC(=O)N(O)C[C@@H]1C[C@H]1c1cc2ccccc2s1 (relative stereo) [Example 13] | 76% | 
21 |  | 100 nM | NC(=O)N(O)C[C@@H]1C[C@H]1c1cccc(Oc2ccccc2)c1 (relative stereo) [Example 10, N-(1-trans-(2-(3-phenoxyphenyl)cyclopropyl)methyl)-N-hydroxyurea] | 97% | 
22 |  | 100 nM | CC([C@@H]1C[C@H]1c1ccc(Br)cc1)N(O)C(N)=O (stereo partly drawn) [Example 37, N-(1-trans-(2-(4-bromophenyl)cyclopropyl)ethyl)-N-hydroxyurea] | 93% | 
23 |  | 100 nM | CC(Oc1ccc([C@@H]2C[C@H]2CN(O)C(N)=O)cc1)c1ccccc1 (stereo partly drawn) [Example 23, N-(1-trans-(2-(4-(1-phenylethoxy)phenyl)cyclopropyl)methyl)-N-hydroxyurea] | 93% | 
24 |  | 2800 nM | NC(=O)N(O)C[C@H]1C[C@H]1c1ccccc1 (relative stereo) [Example 16, N-(1-cis-(2-phenylcyclopropyl)methyl)-N-hydroxyurea] | 61% | 
25 |  |  | NC(=O)N(O)C[C@@H]1C[C@H]1c1cc2ccccc2s1 (relative stereo) [Example 12] | 68% | 
26 |  | 200 nM | NC(=O)N(O)C[C@@H]1C[C@H]1c1ccccc1Oc1ccccc1 (relative stereo) [Example 40, N-(1-trans-(2-(2-phenoxyphenyl)cyclopropyl)methyl)-N-hydroxyurea] | 97% | 
27 |  | 300 nM | NC(=O)N(O)CC[C@@H]1C[C@H]1c1ccccc1 (relative stereo) [Example 34, N-(2-trans-(2-phenylcyclopropyl)ethyl)-N-hydroxyurea] | 100% | 
28 |  | 1800 nM | NC(=O)N(O)C[C@@H]1C[C@H]1c1ccccc1 (relative stereo) [Example 4, N-1-(trans-(2-phenylcyclopropyl)methyl)-N-hydroxyurea] | 97% | 
29 |  |  | Cc1ccc([C@@H]2C[C@H]2C(C)N(O)C(N)=O)cc1 (stereo partly drawn) [Example 39, N-(1-trans-(2-(4-methylphenyl)cyclopropyl)ethyl)-N-hydroxyurea] | 82% | 
30 |  | 1100 nM | Cc1ccc([C@@H]2C[C@H]2C(C)N(O)C(N)=O)o1 (relative stereo) [Example 26, N-(1-trans-((5-methylfuran-2-yl)cyclopropyl)ethyl)-N-hydroxyurea] |  | 92%
